From patent US20240115545A1, “PHARMACEUTICAL COMPOSITION CONTAINING B-LAPACHONE AS ACTIVE INGREDIENT FOR PREVENTION OR TREATMENT OF CHOLESTATIC LIVER DISEASE” (CUROME BIOSCIENCES CO., LTD., priority 2020, published 2024)

Tests used:
[1] = tested on: DDC-induced cholestatic liver disease mice; experiment: Sirius Red and Masson's trichrome staining of liver connective tissue, DDC-induced cholestatic liver disease mice; type: in vivo; conditions: 40 and 80 mg/kg in diet, DDC 14 days
Experimental: DDC-induced cholestatic liver disease mouse animal models were prepared according to the method of Elisa Pose et al. by using 8-week-old C57BL/6 male mice (Samtako, Korea). Briefly, cholestatic liver disease was induced by feeding a standard rodent diet supplemented with 0.1% (w/w) DDC for 7 or 14 days. The 12-hour light and dark cycle was maintained and animals were allowed to free access to water. The standard rodent diet included medium wheat, wheat, corn, and corn gluten flour, and soybean oil (14% protein). All animal related procedures were reviewed and approved by the Institutional Animal Care and Use Committee of Korea Research Institute of Bioscience and Biotechnology (KRIBB), KRIBB-AEC-20165). The tissue staining of the cholestatic liver disease animal models was measured through H&E staining (basic tissue staining), Sirius Red staining (collagen staining), and Masson's trichrome staining (collagen, cytoplasm, muscle fibers, etc.), and the tissue staining was measured by a skilled researcher. To investigate the preventive effect of β-Lapachone (BL) on cholestatic liver disease, the mice were fed a diet with 0 (DDC-vehicle), 40 mg/kg (DDC-BL40) and 80 mg/kg (DDC-BL80) 3 days before DDC treatment (total 17 days) and, after 3 days, were fed a diet with DDC (total 14 days). […]

[2] = tested on: fibrosis-related genes; experiment: mRNA levels of fibrosis-related genes in liver tissue (Example 3.2); type: in vivo, mice; conditions: β-lapachone with DDC in diet, 7 days; depending on the concentration
Experimental: (§1) After 8-week-old C57BL/6 male mice (Samtako, Korea) were divided into each group (=6), the mice were fed a diet with normal (vehicle), control (DDC), DDC+β-lapachone 20 mg/kg, DDC+β-lapachone 40 mg/kg, DDC+β-lapachone 80 mg/kg, DDC+β-lapachone 100 mg/kg, and positive control DDC+ursodeoxycholic acid 100 mg/kg, and DDC+obeticholic acid 30 mg/kg (total 7 days). After 7 days of treatment, the mice were sacrificed and then the blood was collected from the heart. Thereafter, the levels of alanine aminotransferase (ALT), aspartate aminotransferase (AST), alkaline phosphatase (ALP), and bilirubin, which are blood indexes, were analyzed, and shown in FIG. 4.
After the cholestatic liver disease mouse animal models in Example 3.1 were sacrificed and the liver tissue was harvested therefrom, the mRNA levels of fibrosis-related genes were measured by a method similar to the method in Example 2.3.
In the cholestatic liver disease mouse models, the bile ducts were damaged and fibrosis was induced, by DDC, and accordingly, the transcriptional levels of collagen type 1 alpha 1 (Co|1α1), transforming growth factor beta 1 (TGF-β1), and collagen type I alpha 2 (Co|1α2), which are important factors in the development of fibrosis, were investigated, and the results are shown in FIG. 5.

[3] = tested on: inflammation-related genes; experiment: mRNA levels of inflammatory cytokine genes in liver tissue (Example 3.3); type: in vivo, mice; conditions: β-lapachone with DDC in diet, 7 days
Experimental: as §1
In the cholestatic liver disease, the inflammation in the portal vein and damage to the bile ducts in the liver occur chronically, resulting in cholestasis and liver fibrosis. The mRNA levels of inflammatory cytokine genes in the liver tissue of the cholestatic liver disease mouse animal models obtained by the same method as in Example 3.1 were measured, and shown in FIG. 6.

[4] = tested on: DDC-induced cholestatic liver disease mice; experiment: Treatment effect on blood bilirubin and ALP in cholestatic liver disease-induced mice (Example 4); type: in vivo
Experimental: The treatment effect of β-lapachone in cholestatic liver disease-induced mouse animals were investigated. After 8-week-old C57BL/6 male mice (Samtako, Korea) were divided into each group (=6), each group excluding a control group was fed a diet containing 0.1% DDC for 3 days. Thereafter, the mice were fed a diet with DDC control (vehicle), DDC+β-lapachone 20 mg/kg, DDC+β-lapachone 40 mg/kg, DDC+β-lapachone 80 mg/kg, and positive control DDC+obeticholic acid 30 mg/kg for 4 days (total 7 days). After 7 days of feeding, the mice were sacrificed and then the blood was collected from the heart.

[5] = tested on: Poly I:C-induced cholestatic liver disease animal models; experiment: Blood AST, ALT, ALP in Poly I:C-induced primary biliary cirrhosis mice (Example 5); type: in vivo
Experimental: Of cholestatic liver diseases, primary biliary cirrhosis (PBC) may be introduced to a similar state by using a viral RNA mimic and the Toll-like receptor polyinosinic-polycytidylic acid (Poly I:C). After 8-week-old C57BL/6 male mice (Samtako, Korea) were divided into each group (=6), each experimental group excluding a normal group was intraperitoneally administered 5 mg/kg Poly I:C twice a week for 8 weeks. Thereafter, the mice were fed a diet with control (vehicle), β-lapachone 40 mg/kg, β-lapachone 80 mg/kg, and positive control ursodeoxycholic acid 100 mg/kg and obeticholic acid 30 mg/kg for 8 weeks. On the 16th week of treatment, the experiment was ended, and the mice were sacrificed and then the blood was collected from the heart.

[6] = tested on: DSS-induced inflammatory bowel disease mice; experiment: Colon length in DSS-induced inflammatory bowel disease mice (Example 6.2); type: in vivo; conditions: DSS + β-lapachone 80 mg/kg
Experimental: After 8-week-old C57BL/6 female mice (Samtako, Korea) were divided into each group (=10), each experimental group was fed a standard rodent diet supplemented with 3% (w/w) DSS in drinking water for the first 5 days to induce acute colitis and orally administered control (vehicle), β-lapachone 40 mg/kg, and β-lapachone 80 mg/kg for 14 days.
By the same method as in Example 6.1, experimental groups were divided into a DSS untreated group (Control), a DSS treated group, and a DSS+β-lapachone 80 mg/kg treated group, respectively, and treated. After the end of the experiment, the mice were sacrificed to remove the colon, and the accurate colon length was measured using a Vernier caliper, and is shown FIGS. 11A and 11B. In addition, the mRNA levels of genes of interleukin-1beta (IL-1β), interleukin-6 (IL-6), interleukin-18 (IL-18), interferon-γ (INF-γ), tumor necrosis factor-α (TNF-α), tumor necrosis factor-β (TNF-β), and monocyte chemoattractant protein-1 (MCP-1), which were inflammatory cytokine factors in the colon tissue, were analyzed by a real-time polymerase chain reaction through a conventional experiment procedure, and are shown in FIG. 12.

[7] = 0.1% DDC 3 days, then DDC + 20, 40, 80 mg/kg in diet for 4 days, depending on the concentration
[8] = β-lapachone 40, 80 mg/kg in diet for 8 weeks after 8 weeks Poly I:C

CC1(C)CCC2=C(O1)c1ccccc1C(=O)C2=O [β-lapachone]
formation of connective tissues / fibrosis progression (Sirius Red and Masson's trichrome staining) [1]: inhibited such fibrosis progression | transcriptional level of Co|1α1 in liver [2]: inhibited | transcriptional level of Co|1α2 in liver [2]: inhibited | transcriptional level of TGF-β1 in liver [2]: inhibited | transcriptional level of IL-1β in liver [3]: inhibited | transcriptional level of TNFα in liver [3]: inhibited | ALP in the blood increased by DDC [4, 7]: inhibited | bilirubin in the blood increased by DDC [4, 7]: inhibited | effect on bilirubin and ALP compared with positive controls ([4]; treatment after 3 days DDC, positive control obeticholic acid 30 mg/kg): excellent effect compared with ursodeoxycholic acid (UDCA) and obeticholic acid (OCA) | effect on AST, ALT, ALP compared with comparative substances ([5]; vs ursodeoxycholic acid 100 mg/kg and obeticholic acid 30 mg/kg, 8 weeks): excellent effect compared with the comparative substances ursodeoxycholic acid (UDCA) and obeticholic acid (OCA) | ALP in the blood increased by Poly I:C [5, 8]: inhibited | ALT in the blood increased by Poly I:C [5, 8]: inhibited | AST in the blood increased by Poly I:C [5, 8]: inhibited | colon length shortened by DSS [6]: recovered
